Test results published in US5574059A, “Treating disorders mediated by vascular smooth muscle cell proliferation” (priority 1995, dated 1996).
“Also recorded” adds a separate entry of the source.

What was measured:
I2 imidazoline receptors [1] = assay: inhibition of 3H-idazoxan (5 nM) binding to rat aortic smooth muscle cell membranes; details: for inhibition of 3H-idazoxan binding, in words / Ki: 3H-idazoxan 5 nM; for Ki: Table 2, rat aortic smooth muscle cell membranes, read-out: Ki
Procedure: (§1) Binding to I2 imidazoline receptors is determined by the following assay. Membranes are prepared from cultured cells for ligand binding as described in Regunathan, S., et al, Biochem. Pharmacol. 45, 1667-1675 (1993) and Regunathan, S., et al, J. Neurosci. Res. 34, 681-688 (1993) and the disclosure in these on this is incorporated herein by reference. In particular, harvested rat aortic smooth muscle cells are homogenized in Hepes-sucrose buffer (pH 7.4) with a Teflon-glass homogenizer and centrifuged at 1000 × g for 10 minutes. The pellets are suspended in ice-cold Tris-HCl buffer (pH 7.7) with 5mM ethylene diamine tetracetic acid and homogenized using a Polytron (Brinkman Instruments) for 10 seconds. The homogenate is centrifuged at 40,000 × g for 30 minutes to produce a membrane pellet. The membrane pellet is washed three times by resuspending in buffer and re-centrifuging. The washed pellet is suspended in fresh Tris-HCl buffer (pH 7.4) to provide approximately 100 μg protein per assay tube. Binding assays are performed in Tris-HCl buffer (pH 7.7) using 5 nM of […]. Non-specific binding is defined by 100 μM of unlabelled idazoxan which will inhibit the specific binding of ^3 H-idazoxan. Thus the binding remaining in the presence 100 μM of idazoxan is due to non-specific binding and this will be substracted from total binding to calculate the specific binding. Following incubation at 25° C. for 30 minutes, reaction is terminated by rapid vacuum filtration over Whatman GF/B filters and washed with 10 ml of ice-cold buffer. Filters are suspended in scintillation fluid and radioactivity counted in a liquid scintillation counter. Membrane protein is assayed by Coomassie Blue method (Pierce) using bovine serum albumin as standard.
Determination of inhibition constant (Ki) for each drug is determined as follows: The binding of ^3 H-idazoxan to membranes of vascular smooth muscle cells is determined in the presence of 0.1 nM to 100 μM concentrations of potential drug. The percent inhibition of specific binding of ^3 H-idazoxan by each concentration is calculated and plotted against concentration. The data is analyzed by non-linear curve fitting program, LIGAND and the IC50 value for each potential drug is calculated. The affinity for each drug (Ki) for I2 imidazoline receptors is calculated using the formula Ki =IC50 /1+L/Kd where L is the concentration of ^3 H-idazoxan used for binding and Kd is the dissociation constant for ^3 H-idazoxan for I2 imidazoline receptors. The dissociation constant (Kd) is determined by Scatchard analysis of the saturation binding of ^3 H-idazoxan using the formula [formula] where B and F are the amount of bound and free ligand, respectively, and Bmax is the number of binding sites.
(§2) Primary cultures of rat-aortic smooth muscle cells were prepared by a modification (described in Erlinge, Do, et al, Am. J. Physiol. 265, H1089-1097, 1993) of the method of Meyer-Lehnert and Schrier (Meyer-Lehnert, H., et al, Hypertension 13,350-361, 1989), the disclosure of these cited articles being incorporated herein by reference. Briefly, rats were killed by anesthetic overdose and the aorta were removed and incubated with collagenase (2 mg/ml) in Dulbecco's modified Eagle's minimum essential medium (DMEM). The vessel was stripped of adventitia, cut longitudinally and the intima scraped away. After further collagenase treatment, the remaining tissue was passed 20 times through 18 and 16 gauge needles. The resulting cell suspension was centrifuged at 500 × g for 5 minutes and resuspended in DMEM containing penicillin (100 units/ml), streptomycin (100 μg/ml), 2 mM L-glutamine and 10% fetal calf serum. The suspended cells were plated in T-75 flasks, cultured until confluent, and subcultured in 100 mm plates. The confluent cells were harvested and membranes were prepared. Cell viability was determined by trypan blue exclusion.

[2] = tested on: rat aortic smooth muscle cells; assay: serum-stimulated proliferation, 3H-thymidine incorporation into DNA; assay type: cell-based; details: 10% fetal calf serum stimulated; for IC50: Rattus norvegicus, read-out: 3H-thymidine incorporated (IC50); for IC50 / 3H-thymidine incorporated (IC50), N symbol: 24 h
Procedure: (§3) Inhibition of serum-stimulated proliferation of rat aortic smooth muscle cells is determined as follows: The antiproliferative effect of potential drug is determined by measuring the incorporation of ^3 H-thymidine into cellular DNA. Exposure of quiescent vascular smooth muscle cell to serum, which contains many growth factors, results in a large increase in cellular proliferation as measured by ^3 H-thymidine incorported into DNA. The inhibitory effect of potential drug on serum-stimulated proliferation is tested by adding a drug before the addition of serum and determining if the serum-stimulated proliferation is reduced. […] In that event, antagonizing of the antiproliferative effect of idazoxan is determined by adding antagonist before the addition of idazoxan to serum-stimulated vascular smooth muscle cells.
In this experiment, the proliferation of vascular smooth muscle cells was determined by measuring DNA replication. The incorporation of ^3 H-thymidine into DNA was used to measure the replication of DNA as described in Erlinge, D., et al, Am. J. Physiol. 265, H1089-H1097 (1993) which is incorporated herein by reference.
(§4) Rat aortic smooth muscle cells prepared as described in In Vitro Example 1 were plated into 24-well plates at a density of about 30,000 cells/well in 10% fetal calf serum (FCS). After 48 hours, the cells were starved in 0.5% FCS for another 48 hours to decrease proliferation and induce quiescence. The medium was replaced by serum-free medium 24 hours prior to addition of drug (drugs are described below) and 10% fetal calf serum or only 10% fetal calf serum in the case of the control. The cells were then incubated for 24 hours and ^3 H-thymidine (1 μCi/well) was added at hour 20. At the end of the 24 hour period, the medium was aspirated and the cells were washed three times with phosphate-buffered saline and twice with ice-cold trichloroacetic acid. Fixed cells were then solubilized in 0.2M NaOH and sonicated. A 100 μl aliquot was used for scintillation counting.

α2 -adrenergic receptors = assay: specific binding of 3H-PAC and 3H-rauwolscine to smooth muscle cell membranes; design: species or system rat; details: for specific binding of 3H-PAC / 3H-rauwolscine: 5 nM ligand, non-specific binding defined by 100 μM cold ligand; for binding selectivity of radioligand, in words (α2-adrenergic receptors): with epinephrine competition
Procedure: as §2, with “exclusion. Smooth muscle cells were phenotypically defined by immunostaining with anti-smooth muscle actin (Sigma). The cultured cells were usually used for only about 10 passages after which they were replaced by freshly prepared cells.” for “exclusion.”
Membranes were prepared from the cultured cells as described in Regunathan et al, Biochem. Pharmacol. 45, 1667-1675 (1993). Membranes were incubated with 5 nM of ^3 H-idazoxan, ^3 H-PAC or ^3 H-rauwolscine with non-specific binding defined by 100 μM cold ligand as described above.

[3] = tested on: rat aortic smooth muscle cells; assay: antagonism of the antiproliferative effect in serum-stimulated smooth muscle cells; assay type: cell-based
Procedure: as §3
as §4, with “After” for “Rat aortic smooth muscle cells prepared as described in In Vitro Example 1 were plated into 24-well plates at a density of about 30,000 cells/well in 10% fetal calf serum (FCS). After”
To test this, the effect of tolazoline (100 μM) on the concentration/response curve was determined.

I2 imidazoline receptors [4] = assay: saturation/specific binding of 3H-idazoxan to smooth muscle cell membranes (Scatchard analysis); design: species or system rat
Procedure: as §1, with “Membrane protein is assayed by Coomassie Blue method (Pierce) using bovine serum albumin as standard.” left out
Primary cultures of rat-aortic smooth muscle cells were prepared by a modification (described in Erlinge, Do, et al, Am. J. Physiol. 265, H1089-1097, 1993) of the method of Meyer-Lehnert and Schrier (Meyer-Lehnert, H., et al, Hypertension 13,350-361, 1989), the disclosure of these cited articles being incorporated herein by reference. […] Cell viability was determined by trypan blue exclusion.

Compound	inhibition of 3H-idazoxan binding, in words (I2 imidazoline receptors [1])	Ki (I2 imidazoline receptors [1])	inhibition of vascular smooth muscle cell proliferation, in words [2]	3H-thymidine incorporated (IC50), N symbol [2]	further results
N=C(N)NC(=O)c1nc(Cl)c(N)nc1N [Amiloride]	low	75 ± 9.6 µM	–	–	–
c1ccc(C2CC2)c(OCC2=NCCN2)c1 [Cirazoline, cyclopropyl phenoxy imidazoline]	–	–	–	–	IC50 [2]: 286 ± 19 µM
Clc1cccc(Cl)c1N=C1NCCN1 [Clonidine]	–	2.5 ± 0.65 µM	had no effect	N	–
CNC[C@H](O)c1ccc(O)c(O)c1 [Epinephrine]	–	–	–	–	reduction of 3H-idazoxan binding (I2 imidazoline receptors [1]; even at 100 μM epinephrine, failed to reduce by greater than): ≤ 10%; inhibition of specific binding of 3H-PAC (α2 -adrenergic receptors; epinephrine 10 μM): completely inhibited; inhibition of specific binding of 3H-rauwolscine (α2 -adrenergic receptors; epinephrine 10 μM): completely inhibited
N=C(N)N/N=C/c1c(Cl)cccc1Cl [Guanabenz]	low	51 ± 6.5 µM	–	–	–
COc1nc(C)nc(Cl)c1N=C1NCCN1 [Moxonidine]	low	55 ± 4 µM	had no effect	N	–
c1ccc2c(CC3=NCCN3)cccc2c1 [Naphazoline, 2-(1-naphthylmethyl) imidazoline]	–	–	–	–	IC50 [2]: 52.3 ± 5.6 µM
Cc1ccc(N(CC2=NCCN2)c2cccc(O)c2)cc1 [Phentolamine]	–	10.5 ± 1.4 µM	–	N	–
COC(=O)[C@H]1[C@H]2C[C@H]3c4[nH]c5ccccc5c4CCN3C[C@H]2CC[C@@H]1O [Rauwolscine]	without effect	> 100 µM	had no effect	N	effect of rauwolscine on the anti-proliferative response [3]: blocked
C1COC(NC(C2CC2)C2CC2)=N1 [Rilmenidine]	low	85 ± 9 µM	had no effect	N	–
c1ccc(CC2=NCCN2)cc1 [Tolazoline]	binding with high affinity	0.256 ± 0.023 µM	without any effect; also recorded: failed to inhibit cellular proliferation	N	effect on the concentration/response curve for idazoxan ([3]; tolazoline 100 μM): markedly shifted the concentration/response curve for idazoxan to the right
Nc1cc(Cl)c(NC2=NCCN2)c(Cl)c1 [^3 H-PAC]	–	–	–	–	specific binding of 3H-PAC / 3H-rauwolscine (α2 -adrenergic receptors): greater than 70%; binding selectivity of radioligand, in words (α2-adrenergic receptors) (α2 -adrenergic receptors): primarily bind to α2 -adrenergic receptors
c1ccc2c(c1)OCC(C1=NCCN1)O2 (stereo not drawn) [^3 H-idazoxan]	–	–	–	–	specific binding of 3H-idazoxan (I2 imidazoline receptors [4]; 5 nM ligand, non-specific binding defined by 100 μM cold ligand): greater than 70%; Kd (I2 imidazoline receptors [4]; Scatchard analysis, single-site fit, in presence of 10 μM epinephrine): 0.0089 ± 0.0012 µM; binding selectivity of radioligand, in words (non-adrenergic sites) (I2 imidazoline receptors [4]; with epinephrine competition): binds almost exclusively to non-adrenergic sites
COC(=O)C1C(O)CCC2CN3CCc4c([nH]c5ccccc45)C3CC21 (stereo not drawn) [^3 H-rauwolscine]	–	–	–	–	specific binding of 3H-PAC / 3H-rauwolscine (α2 -adrenergic receptors): greater than 70%; binding selectivity of radioligand, in words (α2-adrenergic receptors) (α2 -adrenergic receptors): primarily bind to α2 -adrenergic receptors
